Source: publication PMC10610289, “Novel Baicalein-Derived Inhibitors of Plasmodium falciparum” (Pathogens, 2023)

Legend:
[1] = test system: Dd2 ELQ300 (PfcytB Ile22Leu); assay: Cross-resistance panel, Dd2 ELQ300; type: cell-based, Plasmodium falciparum
Procedure: (§1) Parasite lines used in the study were P. falciparum 3D7 (Pf3D7 Chloroquine-sensitive) and Plasmodium falciparum K1 (PfK1 Chloroquine-resistant) sourced from the Malaria Research and Reference Reagent Resource Center (MR4), ATCC, Manassas, VA, USA. FNDR-10132 was tested against a cross-resistance panel at Swiss TPH, Allschwil, Switzerland.

THP-1 = assay: Cytotoxicity in THP-1; type: cell-based
Excerpt: Table 5 The compound FNDR-10132 progression profile. | column: FNDR-10132

[2] = test system: Dd2 390048 (Pfpi4k S743T); assay: Cross-resistance panel, Dd2 390048; type: cell-based, Plasmodium falciparum
Procedure: as §1

[3] = Microsomal stability assay; type: in vitro ADME, mouse; settings: 37 °C
Procedure: Dipotassium hydrogen phosphate, Potassium dihydrogen phosphate, and formic acid were obtained from Merck, Rahway, NJ, USA. Methanol–acetonitrile was procured from Biosolve Chimie, Dieuze, France. Mouse liver microsomes, 20 mg/mL, were received from a third-party vendor in India. Imipramine HCl (catalog no. I0971) and Carbamazepine (catalog no. O0363) were procured from TCI, Gurugram, India. ß-NADPH (product code-99197) was procured from Sisco Research Laboratories, Mumbai, India.
The in vitro metabolic stability was determined in mouse liver microsomes. To prepare a mouse liver microsomes (MLM) homogenate, 100 µL of microsomes was resuspended in 100 mM phosphate buffer (0.607 g K2HPO4 and 0.212 g KH2PO4 dissolved in 50 mL of de-ionized water), achieving a working concentration of 0.625 mg/mL. Positive control (Imipramine) and test compounds (FNDR-10132, 10136, 10139, and 10999) were spiked individually into the MLM homogenate at a final concentration of 1 µm. To pre-incubate, they were placed in a water bath at 37 °C for 5 min. At least 30 µL was collected in triplicates (0 min samples), and the reaction was quenched using 90 µL of acetonitrile, which contained 500 ng/mL of Carbamazepine as an internal standard. Nicotinamide Adenine Dinucleotide Phosphate (NADPH) in phosphate buffer was added to the remaining MLM at a 1 mM final concentration and further incubated at 37 °C. At the indicated time intervals, 30 µL aliquots were sampled in triplicates, and the reaction was quenched with acetonitrile containing Carbamazepine as the internal standard. The samples were centrifugated for 10 min at 13,000 rpm, and the supernatant was separated for further analysis.
The analytical method for microsomal stability and protein binding assay is as follows: Chromatographic elution was achieved following isocratic flow on an X-Terra MS C18 50 × 4.6 mm, 2.5 µm, Waters, USA, maintained at 40 °C. The mobile phase contained aqueous 0.1% formic acid in water in solvent A and acetonitrile acidified with 0.1% formic acid in solvent B delivered at 0.300 mL/min. The flow was 15% from solvent A and 85% from solvent B for 4.5 min. A total of 7 μL of the sample was injected for the assay. […] Detection was performed through multiple reaction monitoring (MRM). The ion transitions are as follows: Imipramine, FNDR-10132, FNDR-10136, FNDR-10139, FNDR-10999, and IS at m/z 281.1→86.0, 355.2→115.1, 354.0→298.0, 350.0→186.1, 349→305.2, and m/z 237.0→194.0, respectively. An optimized cone voltage and collision energy were used to ionize the compounds. The MS parameters follow as follows: cone gas flow 50 (L/h); ion source temperature 150 °C; desolvation gas flow 900 (L/h); desolvation temperature 400 °C; and collision gas flow 0.10 (mL/min).

Dd2 DSM265 (Pfdhodh) = assay: Cross-resistance panel, Dd2 DSM265; type: cell-based, Plasmodium falciparum
Procedure: as §1

[4] = test system: resistant strains of P. falciparum; assay: Cross-resistance panel, all mutants/strains tested; type: cell-based; settings: Plasmodium falciparum, read-out: antimalarial activity range against all mutants/strains tested
Procedure: as §1

[5] = test system: Dd2 DDD107498 (PfeEF2 Y186N); assay: Cross-resistance panel, Dd2 DDD107498; type: cell-based, Plasmodium falciparum
Procedure: as §1

[6] = test system: Dd2 GNF156 (Pfcarl Ile1139Lys); assay: Cross-resistance panel, Dd2 GNF156; type: cell-based, Plasmodium falciparum
Procedure: as §1

Dd2 (wt) = assay: Cross-resistance panel, Dd2 wt; type: cell-based, Plasmodium falciparum; settings: strain Dd2 wt
Procedure: as §1

Vero cells = assay: Cytotoxicity assay against Vero cell line; type: cell-based; settings: 72 h, resazurin (CC50)
Procedure: Vero cells were initially washed with PBS and trypsinized, and a 1 × 10^5 cells/mL suspension was prepared. A total of 100 µL of a cell suspension was distributed to each well of the 96-well microtiter plates and allowed to adhere overnight. The next day, serial dilutions of selected test compounds were made in the plates and incubated for 72 h. After 72 h, a ten-microliter resazurin solution (12.5 mg/100 mL PBS) was added to each well. After 3 h, plates were read using a fluorescence reader (Biotek) at an excitation wavelength of 530 nm and an emission wavelength of 590 nm (Sperandeo and Brun, 2003). The MS-EXEL template determined the cytotoxic concentration (CC50) for selected compounds.

[7] = test system: P. falciparum female gametocytes; assay: P. falciparum dual gamete formation assay (PfDGFA), female; type: cell-based; settings: Plasmodium falciparum, read-out: DGF Assay—Inhibition, female
Procedure: The FNDR-10132 was evaluated in a male and female gametocyte functional viability assay by following the procedure described in Ruecker et al..

CCCCCCc1ccc(-c2cc(=O)c3c(O)c(O)c(O)cc3o2)cc1 [FNDR-10132]
IC50 ([1]; Plasmodium falciparum, DD2): 238 nM | Fold shift IC50 rel. Dd2 ([1]; strain Dd2 ELQ300): 0.7 | Cytotoxicity THP-1 (THP-1): 90 µM | IC50 ([2]; Plasmodium falciparum, DD2): 290 nM | Fold shift IC50 rel. Dd2 ([2]; strain Dd2 390048): 0.9 | stability in mouse liver microsomes (in words) ([3]; 60 min, ß-NADPH): moderate stability | Microsomal Stability (Mouse) ([3]; at 30 min, 1 µM, NADPH): 99% | IC50 (Dd2 DSM265 (Pfdhodh); Plasmodium falciparum): 260 nM | Fold shift IC50 rel. Dd2 (Dd2 DSM265 (Pfdhodh); strain Dd2 DSM265): 0.8 | IC50 [4]: 200 to 300 nM | IC50 ([5]; Plasmodium falciparum, DD2): 211 nM | Fold shift IC50 rel. Dd2 ([5]; strain Dd2 DDD107498): 0.6 | IC50 ([6]; Plasmodium falciparum, DD2): 292 nM | Fold shift IC50 rel. Dd2 ([6]; strain Dd2 GNF156): 0.9 | IC50 (Dd2 (wt); Plasmodium falciparum): 328 nM | Fold shift IC50 rel. Dd2 (Dd2 (wt)): 1.0 | Cytotoxicity Vero Cell (Vero cells): 174 µM | inhibition at 1 µM [7]: 9.5%
